Test results from patent US20130296344A1, “CHROMENE DERIVATIVES AND THEIR ANALOGA AS WNT PATHWAY ANTAGONISTS” (Ruprecht-Karls-Universitat Heidelberg, priority 2010, published 2013).
Like-named read-outs stand apart in the source and are kept apart here.

What was measured:
[1] = Cytotoxicity in Hek293T (CellTiterGlo); assay type: cell-based; settings: human, Hek293T cells, 24 h after compound addition, 5 nM-100 microM, read-out: Hek293T IC50 (cytotoxic activity)
Method: (§1) For examination of cytotoxicity in these cancer cell lines the commercial available CellTiterGlo® Reagent (Promega, USA) was used according to the manufactor. Compounds were applied to Hek293T (denoted (a)) or HepG2 (denoted (b)), cultured in Dulbecco's Modified Eagles Medium, supplemented with 10% fetal calf serum and 1% penicillin/streptomycin. Cells were grown in T75 flasks at 37° C., 5% CO2 and trypsinized when 60-80% confluent by adding 2 ml of 0.25% Trypsin-EDTA solution. Cells were then re-suspended into culture medium yielding approx. 4000 cells (a) or 4500 cells (b), suspended in 30 microl medium. 48 h after cell seeding, compounds were added to yield the desired final concentrations. 24 h after compound addition cytotoxicity was evaluated. For this purpose the media was removed and CellTiterGlo® was added according to the manufactors manual. In this assay the luciferase emission readout is directly correlated with the cellular amount of ATP, low luciferase emission thus is reflecting cytotoxicity of a compound.

[2] = test system: Dld1 colon carcinoma cells; test: Antiproliferative activity against Dld1 colon carcinoma cells (nuclei count); assay type: cell-based, human
Method: (§2) For examination of cell line-specific cytotoxicity, compounds were applied to human colorectal cancer cells (HCT116, denoted (1); SW480, denoted (2); Dld-1, denoted (3)) and human fibroblasts (HS-68, denoted (4)), cultured in Mc Coy's ((1)) and Dulbecco's Modified Eagles Medium ((2)-(4)), supplemented with 10% ((1)-(3)) and 20% ((4)) fetal calf serum and 1% penicillin/streptomycin. Cells were grown in T75 flasks at 37° C., 5% CO2 and trypsinized when 60-80% confluent by adding 2 ml of 0.25% Trypsin-EDTA (ethylenediaminetetraacetic acid) solution. Cells were then re-suspended into culture medium yielding approx. 750 cells, suspended in 45 microl medium, were plated into each well of a black 384-well plate for fluorescence imaging experiments. 24-36 hr later 5 microl compound solution (100 microM compound dissolved in ultra pure water containing 1% DMSO (dimethylsulfoxide)), were added to achieve a final concentration of 10 microM and were incubated for at least 72 hr. Compound incubation was terminated by (a) fixation and (b) permeabilisation of cells, followed by (c) fluorescence labeling of cell nuclei for cytometric quantification or by immunocytochemistry for microscopic evaluation of cell morphology. […] Solutions were incubated for 15 (a,b) and 30 min (c) in the dark at room temperature. Cells were washed twice between each step with 30 microl PBS. The assay system was miniaturized and adapted to automated workflow using liquid-handling robotics.
(§3) Cell line-specific cytotoxicity was quantified by counting the number of Hoechst labeled nuclei per well of a 384-well plate using a plate cytometer. Data obtained with the cytometer was analysed using standard data analysis software.
(§4) The examination of the antiproliferative activity against human colon carcinoma cells Dld1, HCT116 and SW480 was carried out in analogy to the procedure carried out for HS68. The respective compound applied in increasing concentrations yielding final concentrations per well of 5 nM-90 microM.

[3] = Cytotoxicity in HepG2 (CellTiterGlo); assay type: cell-based; settings: human, HepG2 cells, 24 h after compound addition, 5 nM-100 microM, read-out: HepG2 IC50 (cytotoxic activity)
Method: as §1

Wnt pathway (Wnt1/Frzd8) = test: Wnt signaling pathway reporter gene assay (6xTCF-luciferase, Wnt1/Frizzled 8/LRP6 stimulated Hek293T cells); assay type: cell-based, mouse (Wnt1, human (LRP6)
From the text: To screen for small-molecule modulators of the Wnt signaling pathway, a reporter gene based assay describing the modulation of the TCF4 transcription factor was used. […]

[4] = test system: HCT116 colon carcinoma cells; test: Antiproliferative activity against HCT116 colon carcinoma cells (nuclei count); assay type: cell-based, human
Method: as §2, §3, §4

[5] = test system: human fibroblasts (HS-68); test: Cell line specific cytotoxicity, normal cells HS68 (nuclei count); assay type: cell-based; settings: at least 72 hr incubation, Hoechst nuclei count, read-out: HS68 IC50 (influence on normal cells)
Method: as §2, §3
Identified hits were further evaluated by visual inspection of fluorescence micrographs obtained from imaging using a conventional fluorescence microscope.

[6] = test system: SW480 colon carcinoma cells; test: Antiproliferative activity against SW480 colon carcinoma cells (nuclei count); assay type: cell-based; settings: Homo sapiens, 5 nM-90 microM
Method: as §2, §3, §4

[7] = Homo sapiens, DLD-1, colon carcinoma cells, 5 nM-90 microM, nuclei count, read-out: Dld1 IC50
[8] = Homo sapiens, HEK-293T, Hek293T, 6xTCF-luciferase reporter, 24 h incubation, 5 nM-100 microM, read-out: Wnt1/Frzd8 IC50 (Wnt pathway inhibitory activity)
[9] = Homo sapiens, HCT-116, colon carcinoma cells, 5 nM-90 microM, nuclei count, read-out: HCT116 IC50
[10] = Table 7, racemate vs enantiomers, procedure of example 56, read-out: IC50 against colon cancer cell lines DLDl
[11] = Table 7, racemate vs enantiomers, procedure of example 54, read-out: IC50 against Wnt-Pathway
[12] = Table 7, racemate vs enantiomers, procedure of example 56, read-out: IC50 against colon cancer cell lines HCT 116
[13] = Homo sapiens, HEK-293T, 24 h, Hek293T, 6xTCF-luciferase reporter, 24 h incubation, 5 nM-100 microM, read-out: Wnt1/Frzd8 IC50 (Wnt pathway inhibitory activity)

IC50 (Wnt pathway (Wnt1/Frzd8); [13])	SMILES	IC50 at 24 h [1]	IC50 ([2]; Homo sapiens, DLD-1, Table 7, racemate vs enantiomers, procedure of example 56, read-out: IC50 against colon cancer cell lines DLDl)	IC50 [2, 7]	IC50 at 24 h [3]	IC50 (Wnt pathway (Wnt1/Frzd8); [8])	IC50 (Wnt pathway (Wnt1/Frzd8); Homo sapiens, HEK-293T, Table 7, racemate vs enantiomers, procedure of example 54, read-out: IC50 against Wnt-Pathway)	IC50 ([4]; Homo sapiens, HCT-116, Table 7, racemate vs enantiomers, procedure of example 56, read-out: IC50 against colon cancer cell lines HCT 116)	IC50 [4, 9]	IC50 [2, 10]	IC50 (Wnt pathway (Wnt1/Frzd8); [11])	IC50 [4, 12]	IC50 [5]	IC50 [6]
	COc1cc(C2C(C#N)=C(N)Oc3c2ccc2ccc(N)nc32)cc(Br)c1OC (racemic) [(20), 3,6-Diamino-1-(3-bromo-4,5-dimethoxy-phenyl)-1H-4-oxa-5-aza-phenanthrene-2-carbonitrile]	> 90000 nM	10 nM	14 nM	37000 nM	6 nM	5 nM	5 nM	15 nM					
	COc1cc(C2C(C#N)=C(N)Oc3c2ccc2ccc(N)nc32)cc(Br)c1OC (single isomer, unassigned) [(20)-1, 3,6-Diamino-1-(3-bromo-4,5-dimethoxy-phenyl)-1H-4-oxa-5-aza-phenanthrene-2-carbonitrile]									< 5 nM	< 5 nM	< 5 nM		
	COc1cc(C2C(C#N)=C(N)Oc3c2ccc2ccc(N)nc32)cc(Br)c1OC (single isomer, unassigned) [(20)-2, 3,6-Diamino-1-(3-bromo-4,5-dimethoxy-phenyl)-1H-4-oxa-5-aza-phenanthrene-2-carbonitrile]									356 nM	330 nM	354 nM		
	COc1cc(C2C(C#N)=C(N)Oc3c2ccc2ccccc32)cc(Br)c1OC (stereo not drawn) [(1), 2-Amino-4-(3-bromo-4,5-dimethoxy-phenyl)-4H-benzo[h]chromene-3-carbonitrile]	> 90000 nM		38 nM	> 90000 nM	46 nM			49 nM				87 nM	56 nM
86 nM	C=CCOc1c(Br)cc(C2C(C(=O)OCC)=C(N)Oc3c2ccc2ccccc32)cc1OC (stereo not drawn) [(4), 4-(4-Allyloxy-3-bromo-5-methoxy-phenyl)-2-amino-4H-benzo[h]chromene-3-carboxylic acid ethyl ester]	> 90000 nM		171 nM	> 90000 nM				146 nM				215 nM	332 nM
855 nM	CCOC(=O)C1=C(N)Oc2c(ccc3ccccc23)C1c1cc(Br)c(OC)c(OC)c1 (stereo not drawn) [(6), 2-Amino-4-(3-bromo-4,5-dimethoxy-phenyl)-4H-benzo[h]chromene-3-carboxylic acid ethyl ester]	> 90000 nM		3820 nM	> 90000 nM				8600 nM				> 90000 nM	5960 nM
	N#CC1=C(N)Oc2c(ccc3ccccc23)C1c1cc(F)c(F)c(F)c1 (stereo not drawn) [(7), 2-Amino-4-(3,4,5-trifluoro-phenyl)-4H-benzo[h]chromene-3-carbonitrile]	> 90000 nM		474 nM	> 90000 nM	316 nM			922 nM				> 90000 nM	2860 nM
	COc1cc(C2C(C#N)=C(N)Oc3c2ccc2ccc(C)nc32)cc(Br)c1OC (stereo not drawn) [(16), 3-Amino-1-(3-bromo-4,5-dimethoxy-phenyl)-6-methyl-1H-4-oxa-5-aza-phenanthrene-2-carbonitrile]	> 90000 nM		2900 nM	> 90000 nM	1130 nM			3340 nM				4940 nM	3160 nM
	COc1cc(C2C(C#N)=C(N)Oc3c2c(O)nc2ccccc32)cc(Br)c1OC (stereo not drawn) [(17), 2-Amino-4-(3-bromo-4,5-dimethoxy-phenyl)-5-hydroxy-4H-pyrano[3,2-c]quinoline-3-carbonitrile]	> 90000 nM		643 nM	> 90000 nM	20 nM			305 nM					577 nM
	COc1cc(C2C(C#N)=C(N)Oc3c2ccc2ncccc32)cc(Br)c1OC (stereo not drawn) [(18), 6-Amino-8-(3-bromo-4,5-dimethoxy-phenyl)-8H-5-oxa-1-aza-phenanthrene-7-carbonitrile]	> 90000 nM		185 nM	> 90000 nM	33 nM			331 nM				2770 nM	19700 nM
	COc1cc(C2C(C#N)=C(N)Oc3c2ccc2ccc(O)nc32)cc(Br)c1OC (stereo not drawn) [(19), 3-Amino-1-(3-bromo-4,5-dimethoxy-phenyl)-6-hydroxy-1H-4-oxa-5-aza-phenanthrene-2-carbonitrile]	> 90000 nM		21 nM	> 90000 nM	3 nM			17 nM					
	N#CC1=C(N)Oc2cc3ccccc3cc2C1c1cc(F)c(F)c(F)c1 (stereo not drawn) [(28), 2-amino-4-(3,4,5-trifluoro-phenyl)-4H-benzo[g]chromene-3-carbonitrile]	> 90000 nM		22000 nM	31700 nM	2400 nM			30300 nM				> 90000 nM	53600 nM
	N#CC1=C(N)Oc2cc3ccccc3cc2C1c1cc(F)c(N2CCCCC2)c(F)c1 (stereo not drawn) [(29), 2-amino-4-(3,5-difluoro-4-piperidin-1-yl-phenyl)-4H-benzo[g]chromene-3-carbonitrile]	> 90000 nM		> 90000 nM	42500 nM	6480 nM			> 90000 nM				> 90000 nM	38500 nM
	COc1cc(C2C(C#N)=C(N)Oc3cc4ccccc4cc32)cc(Br)c1OC (stereo not drawn) [(30), 2-Amino-4-(3-bromo-4,5-dimethoxy-phenyl)-4H-benzo[g]chromene-3-carbonitrile]	> 90000 nM		8980 nM	> 90000 nM	697 nM			2900 nM				5150 nM	7600 nM
1960 nM	COc1cc(C2C(C#N)=C(N(C)C)Oc3cc4ccccc4cc32)cc(Br)c1OC (stereo not drawn) [(31), 2-Dimethylamino-4-(3-bromo-4,5-dimethoxy-phenyl)-4H-benzo[g]chromene-3-carbonitrile]	> 90000 nM		4560 nM	> 90000 nM				10000 nM				> 90000 nM	12000 nM
	N#CC1=C(N)Oc2cc3c(cc2C1c1cc(F)c(F)c(F)c1)OCO3 (stereo not drawn) [(39), 6-Amino-8-(3,4,5-trifluoro-phenyl)-8H-[1,3]dioxolo[4,5-g]chromene-7-carbonitrile]	> 90000 nM		1080 nM	> 90000 nM	1360 nM			666 nM					2690 nM
3420 nM	CCOC(=O)C1=C(N)Oc2cc3c(cc2C1c1cc(F)c(F)c(F)c1)OCO3 (stereo not drawn) [(40), 6-Amino-8-(3,4,5-trifluoro-phenyl)-8H-[1,3]dioxolo[4,5-g]chromene-7-carboxylic acid ethyl ester]	> 90000 nM		15700 nM	> 90000 nM				> 90000 nM				> 90000 nM	6380 nM
